Structures can show the parent of a compound that is named as a salt. Where two headings read alike, the source gives them in different places.
Columns and labels:
hPAD4 = hPAD4 (Homo sapiens, UniProt Q9UM07); assay: PAD4 inhibition assay, RapidFire mass spectrometry (hPAD4 RFMS); assay type: biochemical
Protocol: Compounds of the present invention were assayed as inhibitors of PAD4 using the assay protocol described below.
Compounds were solubilised in 100% DMSO to achieve 100 mM final compound concentration. Compound stock solutions were stored at RT. A series of dilutions were prepared in DMSO and mixed 8 times with 20 μL, mixing volume. Final assay conditions were as follows:
Assay buffer (as aforementioned): 100 mM Tris-HCl (pH 7.6), 2 mM DTT, 1 mM CaCl2
Final concentrations: • 100 nM hPAD4 enzyme • 50 μM (8-fold sub-Km) substrate peptide • 0.5% DMSO
Total incubation time: 65 mins at 37° C.
Stop solution: 40 μl 5% TCA in ACN
0.25 μL of compound solution was added to 10 μL of 200 nM PAD4 in assay buffer (100 mM Tris-HCl pH 7.6, 2 mM DTT). After 5 mins, 10 μL of 100 μM of substrate in buffer (100 mM Tris-HCl pH 7.6, 2 mM DTT, 2 mM CaCl2) was added and the reaction incubated for 60 mins at 37 ° C. The enzymatic reaction was quenched by addition of 40 μl of 5% TCA in ACN (1.7% TCA final concentration) stop solution. Arginine containing substrate and citrulline containing product (+1 Da mass shift) were subjected to solid phase extraction on Agilent RapidFire (RF) 300 system and detected on a coupled, triple quadrupole Agilent 6460 QQQ mass spectrometry (MS) device under application of multiple reaction monitoring (MRM) for quantitation.

mPAD4 = mPAD4 (Mus musculus, UniProt Q9Z183); assay: PAD4 inhibition assay, RapidFire mass spectrometry (mPAD4 RFMS); assay type: biochemical
[1] = 100 nM hPAD4 enzyme, 50 μM substrate peptide, 65 mins at 37° C., read-out: hPAD4 RFMS IC50
[2] = pIC50=-log(IC50), read-out: hPAD4 RFMS pIC50 (converted)
[3] = pIC50=-log(IC50), read-out: mPAD4 RFMS pIC50 (converted)

mPAD4, sequence (Q9Z183 whole entry): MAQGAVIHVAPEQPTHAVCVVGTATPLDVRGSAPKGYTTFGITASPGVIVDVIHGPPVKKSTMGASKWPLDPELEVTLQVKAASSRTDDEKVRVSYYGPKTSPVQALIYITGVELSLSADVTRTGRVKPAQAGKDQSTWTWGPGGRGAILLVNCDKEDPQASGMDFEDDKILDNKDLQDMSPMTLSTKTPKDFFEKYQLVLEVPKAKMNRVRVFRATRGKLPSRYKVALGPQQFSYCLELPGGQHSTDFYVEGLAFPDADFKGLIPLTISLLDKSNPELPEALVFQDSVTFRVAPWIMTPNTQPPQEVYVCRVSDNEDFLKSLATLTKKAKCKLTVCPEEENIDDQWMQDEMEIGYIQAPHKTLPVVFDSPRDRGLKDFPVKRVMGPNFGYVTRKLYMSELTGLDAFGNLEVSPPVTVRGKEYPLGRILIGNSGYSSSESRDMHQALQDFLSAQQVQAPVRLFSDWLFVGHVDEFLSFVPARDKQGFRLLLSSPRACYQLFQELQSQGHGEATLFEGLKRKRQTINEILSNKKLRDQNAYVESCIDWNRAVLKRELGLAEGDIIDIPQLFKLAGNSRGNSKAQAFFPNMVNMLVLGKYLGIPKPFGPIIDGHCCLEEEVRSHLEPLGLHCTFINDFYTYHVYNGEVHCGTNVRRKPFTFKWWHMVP
hPAD4, sequence (Q9UM07 whole entry): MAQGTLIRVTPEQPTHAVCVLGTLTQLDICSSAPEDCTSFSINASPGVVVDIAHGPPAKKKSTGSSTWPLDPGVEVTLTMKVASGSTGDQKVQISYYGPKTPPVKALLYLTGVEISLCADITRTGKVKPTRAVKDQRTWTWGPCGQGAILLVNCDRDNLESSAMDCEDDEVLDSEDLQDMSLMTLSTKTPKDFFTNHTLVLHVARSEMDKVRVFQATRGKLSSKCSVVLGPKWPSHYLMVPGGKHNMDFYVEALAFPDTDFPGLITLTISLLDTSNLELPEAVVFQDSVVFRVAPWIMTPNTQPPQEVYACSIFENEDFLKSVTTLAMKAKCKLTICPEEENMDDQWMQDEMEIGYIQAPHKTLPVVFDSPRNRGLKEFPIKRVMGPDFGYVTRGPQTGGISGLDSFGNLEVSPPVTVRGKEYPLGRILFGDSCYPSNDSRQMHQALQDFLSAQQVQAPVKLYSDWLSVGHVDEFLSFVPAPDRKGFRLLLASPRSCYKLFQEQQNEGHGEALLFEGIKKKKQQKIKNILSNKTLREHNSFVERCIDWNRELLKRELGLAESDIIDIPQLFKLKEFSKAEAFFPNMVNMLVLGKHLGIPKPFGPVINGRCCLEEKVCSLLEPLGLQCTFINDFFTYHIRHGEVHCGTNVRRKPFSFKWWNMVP

Structure (SMILES)	IC50 (hPAD4; [1]) [µM]	IC50 (hPAD4; [2]) [µM]	IC50 (mPAD4; [3]) [µM]	IC50 (mPAD4; read-out: mPAD4 RFMS IC50) [µM]	hPAD4 RFMS pIC50 (hPAD4; pIC50=-log(IC50))
Cn1c(-c2cc3cccnc3n2CC2CC2)nc2cc(C(=O)N3CC[C@H]4CCN[C@H]4C3)cnc21 (single isomer, unassigned) [Compound I-9, hydrochloride]	≥ 10	10 to 100			
Cn1c(-c2cc3cccnc3n2CC2CC2)nc2cc(C(=O)N3CC[C@@H]4CCN[C@@H]4C3)cnc21 (single isomer, unassigned) [Compound I-10, hydrochloride]	1 to 5	1 to 10	1 to 10	5 to 10	
Cn1c(-c2cc3cccnc3n2CC(F)(F)F)nc2cc(C(=O)N3CC[C@@H]4CCN[C@@H]4C3)cnc21 [Compound I-1]	≥ 10	10 to 100			
Cn1c(-c2cc3cccnc3n2CC(F)(F)F)nc2cc(C(=O)N3CC[C@H]4CCN[C@H]4C3)cnc21 [Compound I-3]	≥ 10				
CCn1c(-c2nc3cc(C(=O)N4CCC[C@@H](N)C4)cnc3n2CC)cc2cccnc21 [Compound I-4]	5 to 10	1 to 10	1 to 10	1 to 5	
Cn1c(-c2cc3cccnc3n2CC(F)(F)F)nc2cc(C(=O)N3CCC[C@@H](N)C3)cnc21 [Compound I-5]	≥ 10	10 to 100			
Cn1c(-c2cc3cccnc3n2CC(F)(F)F)nc2cc(C(=O)N3CCC4CCNC4C3)cnc21 (centres unmarked) [Compound I-6]	≥ 10	10 to 100			
Cn1c(-c2cc3cccnc3n2CC2CC2)nc2cc(C(=O)N3CCC[C@@H](N)C3)cnc21 [Compound I-7]	1 to 5	1 to 10	≤ 1	≤ 1	
Cn1c(-c2cc3cccnc3n2CC2CC2)nc2cc(C(=O)N3CCC4CCNC4C3)cnc21 (centres unmarked) [Compound I-8, 2-[1-(cyclopropylmethyl)-1H-pyrrolo[2,3-b]pyridin-2-yl]-3-methyl-6-{octahydro-1H-pyrrolo[2,3-c]pyridine-6-carbonyl}-3H-imidazo[4,5-b]pyridine hydrochloride]	5 to 10	1 to 10			
Cn1c(-c2cc3cccnc3n2CC(C)(F)F)nc2cc(C(=O)N3CCC[C@@H](N)C3)cnc21 [Compound I-11]	5 to 10	1 to 10	1 to 10	5 to 10	
N[C@@H]1CCCN(C(=O)c2cnc3c(c2)nc(-c2cc4cccnc4n2CC2CC2)n3CC(F)F)C1 [Compound I-12]	1 to 5	1 to 10	1 to 10	1 to 5	
Cn1c(-c2cc3cccnc3n2CC2CC2)nc2cc(C(=O)N3C[C@@H](N)C[C@H](F)C3)cnc21 [Compound I-13]	1 to 5	1 to 10	≤ 1	≤ 1	
Cn1c(-c2cc3cc(F)c(F)nc3n2CC2CC2)nc2cc(C(=O)N3CCC[C@@H](N)C3)cnc21 [Compound I-14]	1 to 5	1 to 10	≤ 1	≤ 1	
CCn1c(-c2cc3ccc(OC)nc3n2CC2CC2)nc2cc(C(=O)N3CCC[C@@H](N)C3)cnc21 [Compound I-16]	≤ 1	≤ 1	≤ 1	≤ 1	
Cn1c(-c2cc3cccnc3n2CC(F)(F)F)nc2cc(C(=O)N3CCC4CCNC4C3)cnc21 (centres unmarked) [Compound I-19]	≥ 10				
Cn1c(-c2cc3cccnc3n2CC(F)(F)F)nc2cc(C(=O)N3CC[C@H]4CCN[C@H]4C3)cnc21 [Compound I-20]	≥ 10	10 to 100			
Cn1c(-c2cc3cccnc3n2CC(F)(F)F)nc2cc(C(=O)N3CC[C@@H]4CCN[C@@H]4C3)cnc21 [Compound I-21]	≥ 10				E/F

More lines, now with the values ahead:

IC50 (hPAD4; [1]) [µM]	IC50 (hPAD4; [2]) [µM]	IC50 (mPAD4; [3]) [µM]	IC50 (mPAD4; read-out: mPAD4 RFMS IC50) [µM]	hPAD4 RFMS pIC50 (hPAD4; pIC50=-log(IC50))	Structure (SMILES)
1 to 5	1 to 10	≤ 1	≤ 1		CCn1c(-c2cc3cccnc3n2CC2CC2)nc2cc(C(=O)N3CCC[C@@H](N)C3)cnc21 [Compound I-22]
5 to 10					Cn1c(-c2cc3cccnc3n2CC2CC2)nc2cc(C(=O)N3CCC4CCNC4C3)cnc21 (centres unmarked) [Compound I-24]
≥ 10	10 to 100				Cn1c(-c2cc3cccnc3n2CC2CC2)nc2cc(C(=O)N3CC[C@H]4CCN[C@H]4C3)cnc21 [Compound I-25]
1 to 5	1 to 10	1 to 10	5 to 10		Cn1c(-c2cc3cccnc3n2CC2CC2)nc2cc(C(=O)N3CC[C@@H]4CCN[C@@H]4C3)cnc21 [Compound I-26]
1 to 5	1 to 10	≤ 1	≤ 1		Cn1c(-c2cc3cc(F)c(F)cc3n2CC2CC2)nc2cc(C(=O)N3CCC[C@@H](N)C3)cnc21 [Compound I-30]
1 to 5	1 to 10	1 to 10	5 to 10		CC1CCC(N)CN1C(=O)c1cnc2c(c1)nc(-c1cc3cccnc3n1CC1CC1)n2C (centres unmarked) [Compound I-32]
≤ 1	≤ 1	≤ 1	≤ 1		CCn1c(-c2nc3cc(C(=O)N4C[C@H]5CC[C@@H]4[C@@H]5N)cnc3n2C)cc2ccc(OC)nc21 [Compound I-37]
1 to 5	1 to 10	1 to 10	1 to 5		CCn1c(-c2nc3cc(C(=O)N4C[C@H]5CC[C@@H]4[C@@H]5N)cnc3n2C)cc2cccnc21 [Compound I-39]
≤ 1	≤ 1	≤ 1	≤ 1		Cn1c(-c2cc3cccnc3n2CC2CC2)nc2cc(C(=O)N3C[C@H]4CC[C@@H]3[C@@H]4N)cnc21 [Compound I-41]
≥ 10	10 to 100	1 to 10	1 to 5		CCn1c(-c2nc3cc(C(=O)N4CCC[C@@H](N)C4)cnc3n2CCOC)cc2cccnc21 [Compound I-42]
1 to 5	1 to 10	1 to 10	1 to 5		CCn1c(-c2nc3cc(C(=O)N4C[C@H]5CC[C@@H]4[C@@H]5N)cnc3n2CCOC)cc2cccnc21 [Compound I-43]
≤ 1	≤ 1	≤ 1	≤ 1		COc1ccc2cc(-c3nc4cc(C(=O)N5C[C@H]6CC[C@@H]5[C@@H]6N)cnc4n3C)n(CC3CC3)c2n1 [Compound I-44]
≤ 1	≤ 1	1 to 10	1 to 5		COCCn1c(-c2cc3cccnc3n2CC2CC2)nc2cc(C(=O)N3C[C@H]4CC[C@@H]3[C@@H]4N)cnc21 [Compound I-45]
1 to 5	1 to 10	1 to 10	1 to 5		COCCn1c(-c2cc3cccnc3n2CC2CC2)nc2cc(C(=O)N3CCC[C@@H](N)C3)cnc21 [Compound I-46]
≤ 1	≤ 1	≤ 1	≤ 1		COCCn1c(-c2cc3ccc(OC)nc3n2CC2CC2)nc2cc(C(=O)N3C[C@H]4CC[C@@H]3[C@@H]4N)cnc21 [Compound I-47]
≤ 1	≤ 1	1 to 10	1 to 5		CCn1c(-c2nc3cc(C(=O)N4C[C@H]5CC[C@@H]4[C@@H]5N)cnc3n2CCOC)cc2ccc(OC)nc21 [Compound I-48]
5 to 10	1 to 10	1 to 10	1 to 5		CCn1c(-c2nc3cc(C(=O)N4CCC[C@@H](N)C4)cnc3n2CCOC)cc2ccc(OC)nc21 [Compound I-49]
≤ 1	≤ 1	≤ 1	≤ 1		CO[C@]1(C)C[C@H](Cn2c(-c3cc4cccnc4n3CC3CC3)nc3cc(C(=O)N4C[C@H]5CC[C@@H]4[C@@H]5N)cnc32)C1 [Compound I-50]
≤ 1	≤ 1	≤ 1	≤ 1		CCn1c(-c2nc3cc(C(=O)N4C[C@H]5CC[C@@H]4[C@@H]5N)cnc3n2C[C@H]2C[C@@](C)(OC)C2)cc2ccc(OC)nc21 [Compound I-51]
≤ 1	≤ 1	≤ 1	≤ 1		Cn1c(-c2cc3ccc(C(F)(F)F)nc3n2CC2CC2)nc2cc(C(=O)N3C[C@H]4CC[C@@H]3[C@@H]4N)cnc21 [Compound I-52]
≤ 1	≤ 1	≤ 1	≤ 1		COc1ccc2cc(-c3nc4cc(C(=O)N5C[C@H]6CC[C@@H]5[C@@H]6N)cnc4n3C[C@H]3C[C@@](C)(OC)C3)n(CC3CC3)c2n1 [Compound I-53]
≤ 1	≤ 1	≤ 1	≤ 1		N[C@@H]1[C@@H]2CC[C@H]1N(C(=O)c1cnc3c(c1)nc(-c1cc4cccnc4n1CC1CC1)n3CC(F)F)C2 [Compound I-54]

Source: patent US20170166592A1, “AZA-BENZIMIDAZOLE INHIBITORS OF PAD4” (Padlock Therapeutics, Inc., priority 2015, published 2017)
